Data set [1] in a line: in vitro. In kind it is in vitro ADME. Conditions: human, plasma, Exp. PPB (fb*). As for the experimental part:
(§1) As the number of publicly available data of cyclic peptide drugs is small compared to that of small molecule, we additionally designed and experimented with 16 cyclic peptides composed exclusively of natural amino acids. First, linear peptides were synthesized. Then, circularization was achieved by making a disulfide bond between N-terminal and C-terminal cysteine residues and confirmed by TOF/MS and HPLC analyses. Human PPB values fb were determined by the equilibrium dialysis method. Frozen human plasma was thawed immediately at room temperature. Then, the plasma was centrifuged at 3220 g for 10 min to remove clots and the supernatant was collected into a fresh tube. The working solutions of test compounds were prepared in DMSO at a concentration of 200 μM. Then, 3 μL of the working solution was removed for mixing with 597 μL of human plasma to achieve a final concentration of 1 μM (0.5% DMSO). The plasma samples were vortexed thoroughly. The dialysis membranes (HTD 96a/b Dialysis Membrane Strips MWCO 12-14 K, Cat. #1101, Batch# 1141 (12–17)) were soaked in ultrapure water for 60 min to separate the strips, then in 20% ethanol for 20 min, and finally in the dialysis buffer (100 mM sodium phosphate and 150 mM NaCl) for 20 min. The dialysis apparatus was assembled according to the manufacturer’s instructions. Each cell was filled with the spiked plasma sample and dialyzed against equal volume of the dialysis buffer. The assay was performed in duplicate. The dialysis plate was sealed and incubated in an incubator at 37 °C with 5% CO2 at 100 rpm for 6 h. At the end of incubation, the seal was removed and 50 μL of samples from both buffer and plasma chambers were transferred to wells of a 96-well plate. 50 μL of blank plasma was added to each buffer sample and an equal volume of phosphate buffered saline was supplemented to the collected plasma sample. […] Samples in the plate were vortexed for 5 min and centrifuged at 3220 g for 30 min at 4 °C. Then, the supernatant was transferred to a new 96-well plate with 100 μL or 200 μL water (depending on the LC-MS signal response and peak shape) for LC-MS/MS analysis.

In data set [2] the test system is human plasma. Description: in vitro. Format: in vitro ADME. Conditions: 6 h, 1 μM. Here is the method:
as §1

Molecules are shown by their SMILES. Positions of bridges follow the written chain, without caps; N, C: chain ends. Residues, ends and D or L forms follow the SMILES beside them.

As usually defined, the fraction unbound is free concentration divided by total concentration. A low value points to extensive binding.

Regarding `C[C@@H](O)[C@@H]1NC(=O)[C@H](CCCCN)NC(=O)[C@H](Cc2c[nH]c3ccccc23)NC(=O)[C@H](Cc2ccccc2)NC(=O)[C@H](Cc2ccccc2)NC(=O)[C@@H](N)CSSC[C@@H](C(=O)O)NC(=O)[C@H]([C@@H](C)O)NC1=O` [Pep.6] (H-CFFWKTTC-OH; disulfide 1-8; N-terminus and C-terminus assumed), in data set [1], the fraction unbound at 6 h, 1 μM is 0.737.
On to `N[C@H]1CSSC[C@@H](C(=O)O)NC(=O)[C@H](Cc2ccc(O)cc2)NC(=O)[C@H](Cc2ccc(O)cc2)NC(=O)[C@H](Cc2ccc(O)cc2)NC(=O)[C@H](Cc2ccc(O)cc2)NC(=O)[C@H](Cc2ccc(O)cc2)NC(=O)[C@H](Cc2ccc(O)cc2)NC(=O)[C@H](Cc2ccc(O)cc2)NC1=O` [Pep.8] (H-CYYYYYYYC-OH; disulfide 1-9; N-terminus and C-terminus assumed), for which the fraction unbound at 6 h, 1 μM in data set [1] is 0.145.
`CC(C)C[C@@H]1NC(=O)[C@H](CC(C)C)NC(=O)[C@H](CCCCN)NC(=O)[C@@H](N)CSSC[C@@H](C(=O)O)NC(=O)[C@H]([C@@H](C)O)NC(=O)[C@H](CCCCN)NC(=O)[C@H](CCCCN)NC1=O` [Pep.7] (H-CKLLKKTC-OH; disulfide 1-8; N-terminus and C-terminus assumed) registered a free fraction (fraction unbound) at 6 h, 1 μM in data set [1] of 1.
The molecule `N=C(N)NCCC[C@@H]1NC(=O)[C@@H]2CCCN2C(=O)[C@H](CC(N)=O)NC(=O)[C@H](CCC(N)=O)NC(=O)[C@H](Cc2ccccc2)NC(=O)[C@H](Cc2ccc(O)cc2)NC(=O)[C@@H](N)CSSC[C@@H](C(=O)O)NC(=O)CNC1=O` [Pep.1] (H-CYFQNPRGC-OH; disulfide 1-9) gave a fraction unbound at 6 h, 1 μM in data set [1] of 0.76. Also, the “Exp. PPB (fb*)” value in data set [2] was found to be 0.242.

The record behind these values is PMC6311893, “Computational prediction of plasma protein binding of cyclic peptides from small molecule experimental data using sparse modeling techniques” (BMC Bioinformatics, 2018).
